Data as given in ChEMBL document CHEMBL1121638, “Synthesis and preliminary pharmacological evaluation of asymmetric chloroquine analogues” (1981).
Values joined by “and” are separate entries in the source; they are usually repeats but may differ in a detail not shown here. Equal values may be shown once. Active and inactive are the calls of the source. The calls are words filed in the database; no cut-off is given here.

Legend:
Assay type in all cases: functional
[1] = organism: Mus musculus; assay: Compound was evaluated for the percentage inhibition of PGF2-alpha-induced contractions at a concentration of 10 e-5 M in isolated mouse ileum; NI=No inhibition
[2] = organism: Mus musculus; assay: Compound was evaluated for the percentage inhibition of the control PGF2-alpha response at a concentration of 3 x 10 e-4 M in isolated mouse ileum
[3] = organism: Mus musculus; assay: Antispasmodic activity evaluated as percentage reduction in the contractile response of the estrous uterus in mouse
[4] = organism: Mus musculus; assay: Compound was evaluated for the percentage inhibition of PGF2-alpha-induced contractions at a concentration of 10 e-5 M in isolated mouse ileum

Which inhibition [1] does the source give for `CCN(CC)CCC[C@H](CCl)Nc1ccnc2cc(Cl)ccc12` here?
The inhibition was “inactive”.

What about the inhibition at 300 µM ([2]; Mus musculus, Ileum) of the same compound?
Its inhibition at 300 µM is 17%.

`CCN(CC)CCC[C@H](C)Nc1ccnc2cc(Cl)ccc12` was tested. Which Reduction [3] did it give?
The Reduction was 50%.

What does the source list for `CCN(CC)CCC[C@@H](CCl)Nc1ccnc2cc(Cl)ccc12.Cl`?
inhibition at 10 µM [4]: 28%; Inhibition [2]: 55% and 32%
